In patent publication US10336739B2, “4-hydroxy-3-(heteroaryl)pyridine-2-one APJ agonists” (BRISTOL-MYERS SQUIBB COMPANY, priority 2015, dated 2019) one finds EC50 data, which are given here for 30 compounds.

human APJ receptor, sequence (P35414 whole entry): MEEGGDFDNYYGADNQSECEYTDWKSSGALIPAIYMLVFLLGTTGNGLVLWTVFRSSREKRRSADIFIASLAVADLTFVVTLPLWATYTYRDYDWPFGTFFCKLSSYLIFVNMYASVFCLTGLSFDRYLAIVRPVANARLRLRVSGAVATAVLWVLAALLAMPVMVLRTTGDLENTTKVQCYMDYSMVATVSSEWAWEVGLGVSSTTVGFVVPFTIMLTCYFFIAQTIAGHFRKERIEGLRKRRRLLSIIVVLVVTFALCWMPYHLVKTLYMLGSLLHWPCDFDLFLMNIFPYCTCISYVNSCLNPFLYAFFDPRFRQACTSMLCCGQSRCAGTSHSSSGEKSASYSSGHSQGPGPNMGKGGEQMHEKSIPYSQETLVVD

The first experiment addresses human APJ receptor (Homo sapiens (Human), UniProt P35414). The experiment in a line: Intracellular cAMP accumulation assay (APJ hcAMP, HTRF). The format is cell-based. The settings on record: HEK293 cells stably expressing human APJ receptor; inhibition of forskolin-mediated cAMP production; read-out: Human APJ cAMP EC50 Potency range. In outline: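 cAMP inhibition was quantified by HTRF against a cAMP standard curve, with EC50 fitted to a variable-slope sigmoidal curve. Compounds acted on 5,000 APJ-stable HEK293 cells for 30 minutes at room temperature alongside 2 μM forskolin and […] IBMX. Detection reagents were incubated 60 min.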
(In general: Changes in cAMP serve as a functional read-out for many G protein-coupled receptors.)
`CCCCc1nc(O)c(-c2nnc(CC(=O)N(CC)CC)o2)c(O)c1-c1c(OC)cccc1OC` [Example 177, 2-{5-[6-butyl-5-(2,6-dimethoxyphenyl)-2,4-dihydroxypyridin-3-yl]-1,3,4-oxadiazol-2-yl}-N,N-diethylacetamide]: the EC50 (in general, the concentration at which the effect is half-maximal) was 0.01 to 10 nM.

The same experiment, now with this note: HEK293 cells stably expressing human APJ receptor; inhibition of forskolin-mediated cAMP production; read-out: hAPJ cAMP EC50 Potency range.
Regarding `CCCCc1nc(O)c(-c2nnc(CNC(=O)c3cccc(Cl)c3)o2)c(O)c1-c1c(OC)cccc1OC` [Example 162, N-({5-[6-butyl-5-(2,6-dimethoxyphenyl)-2,4-dihydroxypyridin-3-yl]-1,3,4-oxadiazol-2-yl}methyl)-3-chlorobenzamide], the EC50 was in the range of 0.01 to 10 nM.

With `CCCCc1nc(O)c(-c2nnc(CNC(=O)c3ccc(Cl)cc3)o2)c(O)c1-c1c(OC)cccc1OC` [Example 163, N-({5-[6-butyl-5-(2,6-dimethoxyphenyl)-2,4-dihydroxypyridin-3-yl]-1,3,4-oxadiazol-2-yl}methyl)-4-chlorobenzamide], the EC50 is 0.01 to 10 nM. On the same count and under the same terms, next, `CCCCc1nc(O)c(-c2nnc(CNC(=O)c3ccncc3)o2)c(O)c1-c1c(OC)cccc1OC` [Example 164, N-({5-[6-butyl-5-(2,6-dimethoxyphenyl)-2,4-dihydroxypyridin-3-yl]-1,3,4-oxadiazol-2-yl}methyl)pyridine-4-carboxamide]: 0.01 to 10 nM; `CCCCc1nc(O)c(-c2nnc(CN(C)C(=O)c3cccnc3)o2)c(O)c1-c1c(OC)cccc1OC` [Example 165, N-({5-[6-butyl-5-(2,6-dimethoxyphenyl)-2,4-dihydroxypyridin-3-yl]-1,3,4-oxadiazol-2-yl}methyl)-N-methylpyridine-3-carboxamide]: 0.01 to 10 nM; `CCCCc1nc(O)c(-c2nnc(CNC(=O)Cc3ccccc3)o2)c(O)c1-c1c(OC)cccc1OC` [Example 166, N-({5-[6-butyl-5-(2,6-dimethoxyphenyl)-2,4-dihydroxypyridin-3-yl]-1,3,4-oxadiazol-2-yl}methyl)-2-phenylacetamide]: 0.01 to 10 nM. In the case of `CCCCc1nc(O)c(-c2nnc(CNC(=O)C(C)(C)C)o2)c(O)c1-c1c(OC)cccc1OC` [Example 167, N-({5-[6-butyl-5-(2,6-dimethoxyphenyl)-2,4-dihydroxypyridin-3-yl]-1,3,4-oxadiazol-2-yl}methyl)-2,2-dimethyl-propanamide], the EC50 was in the range of 0.01 to 10 nM. Consider `CCCCc1nc(O)c(-c2nnc(CNC(=O)c3ccccn3)o2)c(O)c1-c1c(OC)cccc1OC` [Example 168, N-({5-[6-butyl-5-(2,6-dimethoxyphenyl)-2,4-dihydroxypyridin-3-yl]-1,3,4-oxadiazol-2-yl}methyl)pyridine-2-carboxamide], for which the EC50 lay within 0.01 to 10 nM. On the same count and under the same terms, next, `CCCCc1nc(O)c(-c2nnc(CN(C)C(=O)C(C)(C)C)o2)c(O)c1-c1c(OC)cccc1OC` [Example 169, N-({5-[6-butyl-5-(2,6-dimethoxyphenyl)-2,4-dihydroxypyridin-3-yl]-1,3,4-oxadiazol-2-yl}methyl)-N,2,2-trimethyl-propanamide]: 0.01 to 10 nM; `CCCCc1nc(O)c(-c2nnc(CN)o2)c(O)c1-c1c(OC)cccc1OC` [Example 170, 3-[5-(aminomethyl)-1,3,4-oxadiazol-2-yl]-6-butyl-5-(2,6-dimethoxyphenyl) pyridine-2,4-diol]: 10 to 100 nM. In the case of `CCCCc1nc(O)c(-c2nnc(CNC(=O)c3ccccc3)o2)c(O)c1-c1c(OC)cccc1OC` [Example 171, N-({5-[6-butyl-5-(2,6-dimethoxyphenyl)-2,4-dihydroxypyridin-3-yl]-1,3,4-oxadiazol-2-yl}methyl) benzamide], the EC50 lay within 0.01 to 10 nM.

Turning to `CCCCc1nc(O)c(-c2nnc(CN(C)C(=O)c3ccccc3)o2)c(O)c1-c1c(OC)cccc1OC` [Example 172, N-({5-[6-butyl-5-(2,6-dimethoxyphenyl)-2,4-dihydroxypyridin-3-yl]-1,3,4-oxadiazol-2-yl}methyl)-N-methylbenzamide], the EC50 was 0.01 to 10 nM. On to `CCOCc1nc(O)c(-c2nnc(CNC(=O)c3ccccc3)o2)c(O)c1-c1c(OC)cccc1OC` [Example 173, N-({5-[5-(2,6-dimethoxyphenyl)-6-(ethoxymethyl)-2,4-dihydroxypyridin-3-yl]-1,3,4-oxadiazol-2-yl}methyl) benzamide], for which the EC50 is 0.01 to 10 nM. In the case of `CCCCc1nc(O)c(-c2nnc(CNC(=O)CC(C)C)o2)c(O)c1-c1c(OC)cccc1OC` [Example 174, N-({5-[6-butyl-5-(2,6-dimethoxyphenyl)-2,4-dihydroxypyridin-3-yl]-1,3,4-oxadiazol-2-yl}methyl)-3-methylbutanamide], the EC50 is 0.01 to 10 nM. With `CCCCc1nc(O)c(-c2nnc(CNC(C)=O)o2)c(O)c1-c1c(OC)cccc1OC` [Example 175, N-({5-[6-butyl-5-(2,6-dimethoxyphenyl)-2,4-dihydroxypyridin-3-yl]-1,3,4-oxadiazol-2-yl}methyl) acetamide], the EC50 fell in the range of 0.01 to 10 nM. For `CCCCc1nc(O)c(-c2nnc(CNC(=O)C(F)(F)F)o2)c(O)c1-c1c(OC)cccc1OC` [Example 176, N-({5-[6-butyl-5-(2,6-dimethoxyphenyl)-2,4-dihydroxypyridin-3-yl]-1,3,4-oxadiazol-2-yl}methyl)-2,2,2-trifluoroacetamide], the EC50 fell in the range of 10 to 100 nM. In the case of `CCCCc1nc(O)c(-c2nnc(CC(=O)NCc3ccccn3)o2)c(O)c1-c1c(OC)cccc1OC` [Example 178, 2-{5-[6-butyl-5-(2,6-dimethoxyphenyl)-2,4-dihydroxypyridin-3-yl]-1,3,4-oxadiazol-2-yl}-N-(pyridin-2-ylmethyl)acetamide], the EC50 lay in the range of 10 to 100 nM.

In the case of `CCCCc1nc(O)c(-c2nnc(CC(=O)NC)o2)c(O)c1-c1c(OC)cccc1OC` [Example 179, 2-{5-[6-butyl-5-(2,6-dimethoxyphenyl)-2,4-dihydroxypyridin-3-yl]-1,3,4-oxadiazol-2-yl}-N-methylacetamide], the EC50 was 0.01 to 10 nM. With `CCCCc1nc(O)c(-c2nnc(CC(N)=O)o2)c(O)c1-c1c(OC)cccc1OC` [Example 180, 2-{5-[6-butyl-5-(2,6-dimethoxyphenyl)-2,4-dihydroxypyridin-3-yl]-1,3,4-oxadiazol-2-yl}acetamide], the EC50 fell in the range of 10 to 100 nM.

For the compound `CCCCc1nc(O)c(-c2nnc(CC(=O)NC(C)C)o2)c(O)c1-c1c(OC)cccc1OC` [Example 181, 2-{5-[6-butyl-5-(2,6-dimethoxyphenyl)-2,4-dihydroxypyridin-3-yl]-1,3,4-oxadiazol-2-yl}-N-(propan-2-yl)acetamide], the EC50 was in the range of 0.01 to 10 nM. In the case of `CCCCc1nc(O)c(-c2nnc(CC(=O)N(C)C)o2)c(O)c1-c1c(OC)cccc1OC` [Example 182, 2-{5-[6-butyl-5-(2,6-dimethoxyphenyl)-2,4-dihydroxypyridin-3-yl]-1,3,4-oxadiazol-2-yl}-N,N-dimethylacetamide], the EC50 lay in the range of 0.01 to 10 nM. For the compound `CCCCc1nc(O)c(-c2nnc(CC(=O)Nc3ccc(OC)cc3)o2)c(O)c1-c1c(OC)cccc1OC` [Example 183, 2-{5-[6-butyl-5-(2,6-dimethoxyphenyl)-2,4-dihydroxypyridin-3-yl]-1,3,4-oxadiazol-2-yl}-N-(4-methoxyphenyl) acetamide], the half-maximal effective concentration (EC50) lay within 10 to 100 nM. The same measure, in the same setting: next, `CCCCc1nc(O)c(-c2nnc(CC(=O)N3CCNC(=O)C3)o2)c(O)c1-c1c(OC)cccc1OC` [Example 184, 4-(2-{5-[6-butyl-5-(2,6-dimethoxyphenyl)-2,4-dihydroxypyridin-3-yl]-1,3,4-oxadiazol-2-yl}acetyl) piperazin-2-one]: 0.01 to 10 nM. With `CCCCc1nc(O)c(-c2nnc(CC(=O)NCc3ccccc3)o2)c(O)c1-c1c(OC)cccc1OC` [Example 186, N-benzyl-2-{5-[6-butyl-5-(2,6-dimethoxyphenyl)-2,4-dihydroxypyridin-3-yl]-1,3,4-oxadiazol-2-yl}acetamide], the EC50 was 0.01 to 10 nM. On to `CCCCc1nc(O)c(-c2nnc(CC(=O)NCC)o2)c(O)c1-c1c(OC)cccc1OC` [Example 187, 2-{5-[6-butyl-5-(2,6-dimethoxyphenyl)-2,4-dihydroxypyridin-3-yl]-1,3,4-oxadiazol-2-yl}-N-ethylacetamide], for which the EC50 was 0.01 to 10 nM. Still for that read-out and setting: next, `CCCCc1nc(O)c(-c2nnc(CC(=O)NC3CC3)o2)c(O)c1-c1c(OC)cccc1OC` [Example 188, 2-{5-[6-butyl-5-(2,6-dimethoxyphenyl)-2,4-dihydroxypyridin-3-yl]-1,3,4-oxadiazol-2-yl}-N-cyclo-propylacetamide]: 0.01 to 10 nM. On to `CCCCc1nc(O)c(-c2nnc(CC(=O)NCCC)o2)c(O)c1-c1c(OC)cccc1OC` [Example 189, 2-{5-[6-butyl-5-(2,6-dimethoxyphenyl)-2,4-dihydroxypyridin-3-yl]-1,3,4-oxadiazol-2-yl}-N-propylacetamide], for which the EC50 was in the range of 0.01 to 10 nM.

Consider `CCCCc1nc(O)c(-c2nnc(CC(=O)NCCF)o2)c(O)c1-c1c(OC)cccc1OC` [Example 190, 2-{5-[6-butyl-5-(2,6-dimethoxyphenyl)-2,4-dihydroxypyridin-3-yl]-1,3,4-oxadiazol-2-yl}-N-(2-fluoroethyl) acetamide], for which the EC50 was in the range of 0.01 to 10 nM. Turning to `CCCCc1nc(O)c(-c2nnc(CC(=O)NCC(F)F)o2)c(O)c1-c1c(OC)cccc1OC` [Example 191, 2-{5-[6-butyl-5-(2,6-dimethoxyphenyl)-2,4-dihydroxypyridin-3-yl]-1,3,4-oxadiazol-2-yl}-N-(2,2-difluoroethyl) acetamide], the EC50 is 0.01 to 10 nM.

Staying with this experiment, now noted: hAPJ cAMP EC50 Potency range (nM), HEK293 cells stably expressing human APJ receptor; inhibition of forskolin-mediated cAMP production.
On to `CCCCc1nc(O)c(-c2nnc(CC(=O)N3CCN(C)CC3)o2)c(O)c1-c1c(OC)cccc1OC` [Example 185, 2-{5-[6-butyl-5-(2,6-dimethoxyphenyl)-2,4-dihydroxypyridin-3-yl]-1,3,4-oxadiazol-2-yl}-1-(4-methylpiperazin-1-yl)ethan-1-one], for which the EC50 was in the range of 10 to 100 nM.
